pEC50, pIC50: −log10 of the molar value. Where two headings read alike, the source gives them in different places.
How the values were obtained:
[1] = test system: A2780 ovarian cancer cells; assay: Cellular proliferation in A2780 cells, Cell Titer Glo (Biological Method 4); assay type: cell-based; details: Homo sapiens; ovarian cancer cell line A2780
Method in brief: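 Viability after 72 h compound exposure (37 °C, 5% CO2) was read by Cell Titer Glo and an EC50 derived, each condition in duplicate. A2780 ovarian cells had been plated at 1,000 per well in DMEM/10% FBS at least 2 h beforehand.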

[2] = test system: pSer473 Akt in A2780 cells; assay: pSer473 Akt assay to monitor PI3K pathway in A2780 cells (Biological Method 2, MSD); assay type: cell-based; details: Homo sapiens; inhibition of Akt phosphorylation, A2780 cells
Method in brief: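 A2780 ovarian cancer cells in DMEM/10% FBS were treated with compound for 1 h at 37 °C, then lysed. pSer473-Akt and total Akt were measured by MSD electrochemiluminescence immunoassay. The pSer473/total Akt ratio gave % inhibition versus DMSO, from which EC50 was derived.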

[3] = test system: Akt^Ser473 phosphorylation in A2780 xenograft tumors; assay: In vivo target modulation (PK/PD) in A2780 ovarian cancer xenograft tumors (Biological Method 3); design: species or system nu/nu mice; details: for inhibition at 60 mg/kg: 60 mg/kg single oral dose; for inhibition at 60 mg/kg / inhibition at 100 mg/kg: A2780 xenograft tumors, read-out: Modulation of Akt^Ser473 phosphorylation (percentage inhibition compared to vehicle); for inhibition at 100 mg/kg: 100 mg/kg single oral dose
From the text: (§1) A2780 ovarian cancer cells obtained from George Coukos (Fox Chase Cancer Center, University of Pennsylvania, Philadelphia, Pa.) were maintained in DMEM (Invitrogen, Inc.) supplemented with 10% heat-inactivated fetal bovine serum with 1% glutamine. Cells were propagated as recommended by the Dr. Coukos and colleagues. Female nu/nu mice (8-12 weeks old, 20-25 g, Charles River) were used for all in vivo pharmacology studies. The mice were housed and maintained in accordance with state and federal guidelines for the humane treatment and care of laboratory animals and received food and water ad libitum. Cancer cells were harvested from mid-log phase cultures using trypsin-EDTA (Invitrogen, Inc.). Five million cells were subcutaneously injected into the right flank of each mouse. Compound treatment was initiated when tumor size reached to 300-400 mm^3 for PK/PD studies and 200-300 mm^3 for efficacy studies. All compound treatment was administrated orally. Tumor volumes were determined by using StudyDirector software.
For PK/PD dose-dependent studies, tumor-bearing mice were given a single oral dose of compound at different concentrations (10, 30, 60 and 100 mg/kg or vehicle) and tumors were resected at 10 hr or 24 hr after dosing. Blood samples were taken by cardiac puncture using a syringe primed with heparin sulfate. Resected tumors were snap frozen on dry ice and pulverized using a liquid nitrogen-cooled cryomortar and pestle, and lysed in cold cell extraction buffer (Biosource) containing protease inhibitor tablet (Complete; EDTA-free, Amersham). Supernatants were taken after centrifugation of tumor lysates at 300×g for 10 min at 4° C. and the protein concentration in each supernatant was determined by BCA (BioRad). An equal amount of protein from each tumor lysate was loaded onto 10% Tris-glycine gels (Invitrogen), for sodiumdoceylsulfate-polyacrylamide gel electrophoresis (SDS-PAGE) after which proteins were transferred from the gel onto PVDF membrane. Membranes were probed with antibodies that recognize phosphoAkt^Ser473 or phosphoAkt^Thr308 (Cell Signaling) followed by secondary goat anti-rabbit IgG conjugated to HRP(Amersham). Positive bands were visualized by enhanced chemiluminescence with X-ray film. Similar procedures were used to determine total AKT in the same tumor lysates to serve as normalization for total protein in each determination. The density of the positive band on the X-ray film was scanned and the target modulation for each compound was expressed as percentage inhibition by each compound compared to vehicle treatment.
(§2) For efficacy studies, A2780 cancer cells (5×10^6 in 100 μl of DMEM culture medium) were injected subcutaneously into the right flank of each nu/nu mouse. […] Tumor growth and animal body weight was measured twice weekly with daily clinical observation to monitor potential toxicities related to the treatment. […] Activation of the PI3K signaling pathway results in the phosphorylation of the downstream signaling molecule Akt at Ser^473 and/or Thr^308. Compound modulation of Akt^Ser473 phosphorylation was examined in A2780 xenograft tumors at time points ranging from 30 min to 36 hr after a single compound dose at 60 or 100 mg/kg.

A2780 tumor xenograft = assay: Efficacy study in A2780 ovarian cancer xenograft model (Biological Method 3); assay type: in vivo, nu/nu mice
From the text: as §1, §2

PI3 kinase alpha = PI3 kinase alpha (Homo sapiens, UniProt P42336); assay: PI3K ATP depletion assay (Biological Method 1, Assay 3; KinaseGlo luminescence); assay type: biochemical; details: ATP depletion assay; read-out: PI3 Kinase Alpha, IC50
Chain of PI3 kinase alpha (P42336 whole entry): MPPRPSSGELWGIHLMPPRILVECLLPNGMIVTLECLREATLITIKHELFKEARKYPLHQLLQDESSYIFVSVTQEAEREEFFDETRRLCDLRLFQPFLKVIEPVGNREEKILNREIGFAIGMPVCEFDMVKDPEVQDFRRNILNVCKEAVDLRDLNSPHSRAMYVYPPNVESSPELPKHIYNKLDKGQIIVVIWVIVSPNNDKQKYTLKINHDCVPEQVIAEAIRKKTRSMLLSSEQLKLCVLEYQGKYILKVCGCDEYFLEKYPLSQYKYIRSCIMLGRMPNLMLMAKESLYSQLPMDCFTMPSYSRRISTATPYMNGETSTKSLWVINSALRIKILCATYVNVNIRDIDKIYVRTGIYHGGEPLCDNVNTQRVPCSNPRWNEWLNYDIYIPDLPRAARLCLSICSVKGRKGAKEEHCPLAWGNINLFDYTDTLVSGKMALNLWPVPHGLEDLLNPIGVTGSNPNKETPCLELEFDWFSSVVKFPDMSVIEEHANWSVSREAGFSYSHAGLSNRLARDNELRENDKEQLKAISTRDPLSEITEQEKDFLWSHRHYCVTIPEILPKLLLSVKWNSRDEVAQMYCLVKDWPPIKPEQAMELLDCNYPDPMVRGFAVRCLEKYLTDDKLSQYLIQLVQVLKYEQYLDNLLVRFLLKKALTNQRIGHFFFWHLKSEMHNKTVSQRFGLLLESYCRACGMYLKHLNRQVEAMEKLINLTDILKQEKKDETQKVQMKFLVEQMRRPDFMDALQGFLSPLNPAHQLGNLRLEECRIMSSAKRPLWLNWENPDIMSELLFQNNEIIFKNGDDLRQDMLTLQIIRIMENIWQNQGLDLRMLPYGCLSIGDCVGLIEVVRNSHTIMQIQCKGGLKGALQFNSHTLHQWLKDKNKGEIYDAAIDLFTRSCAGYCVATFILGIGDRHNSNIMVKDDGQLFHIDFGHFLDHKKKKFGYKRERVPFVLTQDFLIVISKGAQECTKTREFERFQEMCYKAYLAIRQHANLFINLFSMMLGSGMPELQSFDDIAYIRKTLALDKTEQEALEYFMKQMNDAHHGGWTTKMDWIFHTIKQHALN
Chain of PI3 kinase alpha (P27986 whole entry partner): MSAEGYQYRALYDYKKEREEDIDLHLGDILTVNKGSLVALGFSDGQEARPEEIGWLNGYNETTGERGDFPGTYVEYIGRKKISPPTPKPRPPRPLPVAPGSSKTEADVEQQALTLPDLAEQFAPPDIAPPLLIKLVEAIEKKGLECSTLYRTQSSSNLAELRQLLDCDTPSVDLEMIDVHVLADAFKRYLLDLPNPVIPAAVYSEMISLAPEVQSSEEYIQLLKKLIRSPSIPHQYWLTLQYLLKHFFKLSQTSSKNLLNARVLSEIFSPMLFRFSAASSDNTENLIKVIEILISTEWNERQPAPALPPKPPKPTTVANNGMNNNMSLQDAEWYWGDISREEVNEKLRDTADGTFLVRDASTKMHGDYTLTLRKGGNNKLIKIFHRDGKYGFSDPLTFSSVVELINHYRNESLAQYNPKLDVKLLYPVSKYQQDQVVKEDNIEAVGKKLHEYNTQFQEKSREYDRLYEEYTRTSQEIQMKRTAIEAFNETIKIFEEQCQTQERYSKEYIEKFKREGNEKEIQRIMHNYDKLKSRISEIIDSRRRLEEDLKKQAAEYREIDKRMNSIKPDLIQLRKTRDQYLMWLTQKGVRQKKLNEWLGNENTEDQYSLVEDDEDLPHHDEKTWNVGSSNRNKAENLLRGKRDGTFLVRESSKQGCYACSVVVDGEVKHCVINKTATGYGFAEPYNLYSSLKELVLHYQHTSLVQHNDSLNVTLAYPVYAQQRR
Method in brief: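 Compound in DMSO was mixed with 10 nM PI3 kinase and 5 μg/mL phosphatidylinositol, and the reaction was started with 2 μM ATP. It ran to about 50% ATP depletion and was stopped with KinaseGlo.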

[4] = 60 mg/kg oral daily, A2780 model

Row | SMILES | pEC50 [1] | pEC50 [2] | pIC50 (PI3 kinase alpha) | inhibition at 30 mg/kg ([3]; Mus musculus, A2780, 30 mg/kg oral b.i.d., read-out: Target inhibition in A2780 tumors, sustained over the whole dosing period) | inhibition at 60 mg/kg ([3]; Mus musculus, 10 hr) | inhibition at 100 mg/kg ([3]; Mus musculus, 10 hr) | Antitumor activity (A2780 tumor xenograft; 30 mg/kg oral b.i.d., A2780 model (FIG. 5)) | Tumor growth inhibition (A2780 tumor xenograft; 30 mg/kg oral daily, A2780 model) | Tumor growth inhibition (A2780 tumor xenograft; [4]) | Tumor growth inhibition (A2780 tumor xenograft; 100 mg/kg oral daily, A2780 model (FIG. 2)) | Duration of target modulation (50% inhibition) ([3]; 60 mg/kg, A2780 tumors) | inhibition at 100 mg/kg ([3]; Mus musculus, 8 hr) | Tumor growth inhibition (A2780 tumor xenograft; 10 mg/kg oral twice daily, A2780 tumors (FIG. 1)) | Tumor growth inhibition (A2780 tumor xenograft; 60 mg/kg oral twice daily, A2780 tumors (FIG. 1))
1 | Nc1ncc(-c2cc(OC3CCOCC3)nc(N3CCOCC3)n2)c(C(F)(F)F)n1 [Compound 66] | > 5.00 | > 6.00 | > 6.00 | – | < 50% | – | – | – | – | – | – | – | – | –
2 | COc1ccc(Nc2cc(-c3cnc(N)nc3)nc(N3CCOCC3)n2)cn1 [Compound 91] | > 6.00 | > 6.00 | – | – | – | – | – | – | – | – | 8 h | > 50% | no inhibitory activity | 50%
3 | Cc1c(Nc2cnc3ccccc3c2)nc(N2CCOCC2)nc1-c1cnc(N)nc1 [Compound 103] | > 6.00 | > 6.00 | > 6.00 | – | – | – | – | – | – | – | – | < 50% | – | –
4 | Nc1ccc(-c2cc(Nc3cnc4ccccc4c3)nc(N3CCOCC3)n2)cn1 [Compound 183] | > 6.00 | > 6.00 | – | – | – | – | – | – | – | – | – | 50 to 75% | – | –

Now from value to compound, other results behind:

Row | pEC50 [1] | pEC50 [2] | pIC50 (PI3 kinase alpha) | SMILES | inhibition at 30 mg/kg ([3]; Mus musculus, A2780, 30 mg/kg oral b.i.d., read-out: Target inhibition in A2780 tumors, sustained over the whole dosing period) | inhibition at 60 mg/kg ([3]; Mus musculus, 10 hr) | inhibition at 100 mg/kg ([3]; Mus musculus, 10 hr) | Antitumor activity (A2780 tumor xenograft; 30 mg/kg oral b.i.d., A2780 model (FIG. 5)) | Tumor growth inhibition (A2780 tumor xenograft; 30 mg/kg oral daily, A2780 model) | Tumor growth inhibition (A2780 tumor xenograft; [4]) | Tumor growth inhibition (A2780 tumor xenograft; 100 mg/kg oral daily, A2780 model (FIG. 2)) | Duration of target modulation (50% inhibition) ([3]; 60 mg/kg, A2780 tumors) | inhibition at 100 mg/kg ([3]; Mus musculus, 8 hr) | Tumor growth inhibition (A2780 tumor xenograft; 10 mg/kg oral twice daily, A2780 tumors (FIG. 1)) | Tumor growth inhibition (A2780 tumor xenograft; 60 mg/kg oral twice daily, A2780 tumors (FIG. 1))
5 | > 6.00 | > 6.00 | – | Nc1cc(C(F)(F)F)c(-c2cc(N3CCOCC3)nc(N3CCOCC3)n2)cn1 [Compound 10] | < 75% | > 75% | > 75% | significant antitumor activity | 40% | 70% | tumor growth stasis | – | – | – | –
6 | > 6.00 | > 6.00 | > 6.00 | Nc1ncc(-c2cc(OC3CCOCC3)nc(N3CCOCC3)n2)c(N)n1 [Compound 84] | – | 50 to 75% | – | – | – | < 50% | – | – | – | – | –

From patent US8217035B2, “Pyrimidine derivatives used as PI-3-kinase inhibitors” (Novartis AG, priority 2006, dated 2012)
